Measurements from BigSolDB 2.1.

CC(C)(O)P1(=O)OCC2(CO1)COP(=O)(C(C)(C)O)OC2 (stereo not given)
Settings	solubility (mole fraction)
in acetic acid, 293.16 K	0.00691
in acetic acid, 298.15 K	0.0078
in acetic acid, 303.14 K	0.00907
in acetic acid, 307.96 K	0.0104
in acetic acid, 312.97 K	0.0114
in acetic acid, 318.05 K	0.0131
in acetic acid, 323.15 K	0.015
in acetic acid, 328.05 K	0.0173
in acetic acid, 333.04 K	0.0196
in acetic acid, 338.14 K	0.0231
in acetone, 293.6 K	0.000582
in acetone, 298.44 K	0.000762
in acetone, 303.35 K	0.00095
in acetone, 308.29 K	0.00124
in acetone, 313.27 K	0.00159
in acetone, 318.4 K	0.00194
in acetone, 323.3 K	0.00234
in ethanol, 294.15 K	0.00153
in ethanol, 297.63 K	0.00184
in ethanol, 303.05 K	0.00231
in ethanol, 307.95 K	0.00269
in ethanol, 313.15 K	0.00346
in ethanol, 318.16 K	0.00391
in ethanol, 322.95 K	0.00476
in ethanol, 327.84 K	0.00582
in ethanol, 332.93 K	0.00666
in ethanol, 337.94 K	0.00846
in methanol, 293.13 K	0.00585
in methanol, 298.15 K	0.00665
in methanol, 302.94 K	0.00751
in methanol, 307.75 K	0.00875
in methanol, 312.76 K	0.00998
in methanol, 317.95 K	0.0117
in methanol, 323.05 K	0.0136
in water, 293.13 K	0.00564
in water, 298.01 K	0.00585
in water, 303.15 K	0.00607
in water, 308.16 K	0.00631
in water, 313.05 K	0.00658
in water, 317.89 K	0.00692
in water, 323.05 K	0.00723
in water, 328.13 K	0.00754
in water, 332.95 K	0.00793
in water, 337.94 K	0.00826
in water, 342.86 K	0.00867
